These results are taken from patent publication US9988373B2, “Nitrogen-containing six-membered cyclic derivatives and pharmaceutical composition comprising the same” (SHIONOGI & CO., LTD., priority 2013, dated 2018).

One may read the pIC50 as the IC50 on a negative log10 scale, so that one unit is a factor of ten.

Structures are written as SMILES. pIC50: −log10 of the molar value.

The assay addresses T1, human P2X7 receptor (Homo sapiens, UniProt Q99572, R270H).
T1 construct: expressed in transfected cells
T1 sequence (Q99572 1-595 R270H): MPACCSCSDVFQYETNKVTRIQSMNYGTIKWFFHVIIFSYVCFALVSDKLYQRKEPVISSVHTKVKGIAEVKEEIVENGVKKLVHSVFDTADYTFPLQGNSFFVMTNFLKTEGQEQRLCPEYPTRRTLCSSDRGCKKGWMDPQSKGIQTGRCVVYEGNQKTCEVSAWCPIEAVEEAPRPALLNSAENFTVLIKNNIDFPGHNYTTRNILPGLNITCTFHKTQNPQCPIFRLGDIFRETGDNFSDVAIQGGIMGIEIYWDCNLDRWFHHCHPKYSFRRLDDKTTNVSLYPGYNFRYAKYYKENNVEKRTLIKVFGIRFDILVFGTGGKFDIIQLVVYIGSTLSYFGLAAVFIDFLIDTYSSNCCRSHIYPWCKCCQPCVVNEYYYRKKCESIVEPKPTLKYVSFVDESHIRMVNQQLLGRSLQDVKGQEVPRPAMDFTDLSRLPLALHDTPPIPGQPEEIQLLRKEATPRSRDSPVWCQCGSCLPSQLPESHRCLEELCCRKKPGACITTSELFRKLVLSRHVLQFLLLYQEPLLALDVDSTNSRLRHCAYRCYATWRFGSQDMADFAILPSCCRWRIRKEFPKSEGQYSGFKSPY
Description: Evaluation of a human P2X7 receptor inhibitory activity (Yo-Pro uptake, BzATP stimulation, FLIPR TETRA). Type of assay: cell-based. To be noted: antagonistic activity for the human P2X7 receptor, 1321N1 cell transfected with the human P2X7 receptor gene, Yo-Pro fluorescence. An outline of the steps:
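1321N1 cells stably expressing human P2X7 (NM_002562.5 with T606C and G952A SNPs), in HEPES-buffered HBSS pH 7.4-7.5; Yo-Pro uptake stimulated with BzATP, compound added 8 min later, fluorescence followed 20 min on FLIPR. Max–min signal normalised to vehicle (0%) and reference compound (100%); IC50 by logistic fit.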

`COc1cccc(Cn2cc(OC)c(=O)nc2-c2cccc(C(F)(F)F)c2Cl)c1` [II-086] showed a pIC50 (class symbols) above 7.30.

`COc1ccccc1Cn1cc(OC)c(=O)nc1-c1cccc(C(F)(F)F)c1Cl` [II-087]: the negative logarithm of the IC50 (pIC50) (class symbols) was above 7.30.

Molecule `COc1cn(Cc2ccccc2)c(-c2ccc(C(F)(F)F)cc2Cl)nc1=O` [II-088] had a pIC50 (class symbols) of 6.00 to 6.30.

Regarding `Cc1ccccc1Cn1cc(OCC(F)(F)F)c(=O)nc1-c1cccc(C(F)(F)F)c1Cl` [II-089], the pIC50 (class symbols) is above 7.30.

`Cc1ccccc1Cn1cc(OCC#N)c(=O)nc1-c1cccc(C(F)(F)F)c1Cl` [II-090] had a pIC50 (class symbols) above 7.30.

With `Cc1ccccc1Cn1cc(C#N)c(=O)nc1-c1cccc(C(F)(F)F)c1Cl` [II-091], the pIC50 (class symbols) was above 7.30.

As for `COc1ccccc1Cn1cc(C#N)c(=O)nc1-c1cccc(C(F)(F)F)c1Cl` [II-092], the pIC50 (class symbols) is above 7.30.

`COc1ccccc1Cn1cc(F)c(=O)nc1-c1cccc(C(F)(F)F)c1Cl` [II-093] had a negative-log IC50 (pIC50) (class symbols) above 7.30.

Take `COc1cn(Cc2cccnc2C(F)(F)F)c(-c2cccc(C(F)(F)F)c2Cl)nc1=O` [II-094]: the pIC50 (class symbols) is 6.30 to 7.00.

Regarding `COc1cn(Cc2ccccc2Cl)c(-c2cccc(C(F)(F)F)c2Cl)nc1=O` [II-095], where the note is “class symbols”, the pIC50 was above 7.30.

Molecule `COc1cn(Cc2ccc(Cl)cc2)c(-c2cccc(C(F)(F)F)c2Cl)nc1=O` [II-096] had a pIC50 (class symbols) of 6.30 to 7.00.

For `COc1cn(Cc2ccccc2OC(F)(F)F)c(-c2cccc(C(F)(F)F)c2Cl)nc1=O` [II-097], the pIC50 (class symbols) was above 7.30.

Under “class symbols”, `COc1cn(Cc2ccccc2SC(F)(F)F)c(-c2cccc(C(F)(F)F)c2Cl)nc1=O` [II-098] showed a pIC50 of 6.30 to 7.00.

In the case of `COc1cn(Cc2ccccc2C(F)(F)F)c(-c2cccc(C(F)(F)F)c2Cl)nc1=O` [II-099], under “class symbols”, the negative-log IC50 (pIC50) was above 7.30.

In the case of `COc1cn(Cc2cccc(Cl)c2)c(-c2cccc(C(F)(F)F)c2Cl)nc1=O` [II-100], the pIC50 (class symbols) was 7.00 to 7.30.

Molecule `COc1cn(Cc2ccccc2)c(-c2cc(Cl)ccc2Cl)nc1=O` [II-101] gave a negative logarithm of the IC50 (pIC50) (class symbols) of 5.00 to 6.00.

`O=c1cc(-c2cccc(C(F)(F)F)c2Cl)n(Cc2ccccc2)cn1` [III-001]: the negative logarithm of the IC50 (pIC50) is 6.96.

Regarding `O=c1cnn(Cc2ccccc2)c(-c2cccc(C(F)(F)F)c2Cl)c1` [III-002], the negative-log IC50 (pIC50) was 6.96.
